Source: ChEMBL document CHEMBL3879914, “Inhibitors of central nervous system vasoactive inhibitory peptide receptor 2” (2014)

Experiments:
[1] = target: T1, Vasoactive intestinal polypeptide receptor 2 (Homo sapiens) (UniProt P41587); experiment: (§1) Antagonist activity at recombinant human N-terminal signal peptide/FLAG epitope-tagged Rluc8-fused VIPR2 expressed in HEK293 cells assessed as inhibition of VIP-induced human mVenus-beta-arrestin2 binding at 1 uM preincubated for 5 mins with luciferin, coelenterazine H followed by VIP addition measured after 5 mins by BRET assay relative to control; format: cell-based
T1 sequence (whole entry): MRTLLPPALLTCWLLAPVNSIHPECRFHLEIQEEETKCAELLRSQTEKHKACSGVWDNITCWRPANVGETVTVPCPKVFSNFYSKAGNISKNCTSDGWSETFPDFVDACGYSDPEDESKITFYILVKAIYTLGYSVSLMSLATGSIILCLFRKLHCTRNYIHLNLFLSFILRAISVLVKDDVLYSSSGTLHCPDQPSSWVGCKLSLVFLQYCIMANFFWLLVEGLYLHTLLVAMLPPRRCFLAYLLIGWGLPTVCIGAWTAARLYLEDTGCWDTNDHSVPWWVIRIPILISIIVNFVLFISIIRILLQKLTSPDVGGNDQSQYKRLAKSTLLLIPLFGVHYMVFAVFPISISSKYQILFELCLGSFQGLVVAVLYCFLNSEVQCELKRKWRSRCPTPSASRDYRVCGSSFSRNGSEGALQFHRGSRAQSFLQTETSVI

[2] = target: T1, Vasoactive intestinal polypeptide receptor 2 (Homo sapiens); experiment: as §1, with “epitope-tagged” for “epitope-tagged Rluc8-fused”, “cells co-expressing CAMYEL” for “cells”, “cAMP accumulation” for “human mVenus-beta-arrestin2 binding”, “5” for “1”; format: functional, cell-based
[3] = target: T1, Vasoactive intestinal polypeptide receptor 2 (Homo sapiens); experiment: as §1, with “epitope-tagged” for “epitope-tagged Rluc8-fused”, “cells co-expressing CAMYEL” for “cells”, “cAMP accumulation” for “human mVenus-beta-arrestin2 binding”; format: functional, cell-based
[4] = target: T1, Vasoactive intestinal polypeptide receptor 2 (Homo sapiens); experiment: as §1, with “0.5” for “1”; format: cell-based
[5] = target: T1, Vasoactive intestinal polypeptide receptor 2 (Homo sapiens); experiment: as §1, with “epitope-tagged” for “epitope-tagged Rluc8-fused”, “cells co-expressing CAMYEL” for “cells”, “cAMP accumulation” for “human mVenus-beta-arrestin2 binding”, “0.5” for “1”; format: functional, cell-based
[6] = target: T1, Vasoactive intestinal polypeptide receptor 2 (Homo sapiens); experiment: as §1, with “5” for “1”; format: cell-based

Row | SMILES | inhibition [1] [%] | inhibition [2] [%] | inhibition [3] [%] | inhibition [4] [%] | inhibition [5] [%] | inhibition [6] [%]
1 | O=C(NC[C@@H](O)C[C@@H](Cc1ccccc1)C(=O)N[C@H]1c2ccccc2C[C@H]1O)c1ccc2ccccc2c1 | 11.1 | 23.5 | 16.3 | -2.9 to 16.6 | 13.2 | 9.7
2 | COc1ccc(S(=O)(=O)NC[C@@H](O)C[C@@H](Cc2ccccc2)C(=O)N[C@H]2c3ccccc3C[C@H]2O)cc1OC | 23.2 | 28.2 | 20.4 | 10.5 to 30.1 | 21.1 | 32
3 | CCC(=O)Nc1ccc(S(=O)(=O)NC[C@@H](O)C[C@@H](Cc2ccccc2)C(=O)N[C@H]2c3ccccc3C[C@H]2O)cc1 | -1.2 | 26.9 | 1.5 | -3.4 to 8.25 | 0.6 | –
4 | O=C(NC[C@@H](O)C[C@@H](Cc1ccccc1)C(=O)N[C@H]1c2ccccc2C[C@H]1O)c1cccnc1 | -5.7 | 16.4 | 13.5 | -6.8 to 5.05 | 15.2 | -6.3
5 | C=Cc1ccc(C(=O)NC[C@@H](O)C[C@@H](Cc2ccccc2)C(=O)N[C@H]2c3ccccc3C[C@H]2O)cc1 | 47.5 | 23.8 | 16.5 | 2.3 to 12.8 | 16.1 | 1.8
6 | O=C(NCCc1cccc(Cl)c1)[C@@H](Cc1ccccc1)C[C@H](O)CNS(=O)(=O)c1ccc([N+](=O)[O-])cc1 | 23.4 | 13 | 10.7 | 11.1 to 13.8 | 9.3 | 14.7
7 | CC(C)Nc1ccc(S(=O)(=O)NC[C@@H](O)C[C@@H](Cc2ccccc2)C(=O)N[C@H]2c3ccccc3C[C@H]2O)cc1 | -2 | 20.6 | 18.2 | 8.1 to 16.2 | 17.2 | 11.8
8 | CCCCCNc1ccc(S(=O)(=O)NC[C@@H](O)C[C@@H](Cc2ccccc2)C(=O)N[C@H]2c3ccccc3C[C@H]2O)cc1 | 2.3 | 19.1 | 19.1 | 2.8 to 15.2 | 10.8 | 11.3
9 | O=C(NCCc1cccc(Cl)c1)[C@H](Cc1ccccc1)C[C@H](O)CNS(=O)(=O)c1ccc([N+](=O)[O-])cc1 | -7.8 | 7.8 | -3.4 | -6.7 to -0.4 | -5.5 | -8.6
10 | Nc1ccc(S(=O)(=O)NC[C@@H](O)C[C@@H](Cc2ccccc2)C(=O)N[C@H]2c3ccccc3C[C@H]2O)cc1 | -5.5 | 33.3 | 18.6 | -5.6 to 20 | 8.4 | 6.7
11 | CNc1ccc(S(=O)(=O)NC[C@@H](O)C[C@@H](Cc2ccccc2)C(=O)N[C@H]2c3ccccc3C[C@H]2O)cc1 | 1.1 | -7.3 | 2 | -1.5 to -0.8 | -0.9 | 4.3
12 | CC1CCC(NC(=O)[C@@H](Cc2ccccc2)C[C@H](O)CNS(=O)(=O)c2ccc([N+](=O)[O-])cc2)CC1 (some centres undefined) | -0.4 | 5.1 | 9.5 | 2.15 to 5.7 | -0.7 | -0.8
13 | CCN(CC)C(=O)c1ccc(S(=O)(=O)NC[C@@H](O)C[C@@H](Cc2ccccc2)C(=O)N[C@H]2c3ccccc3C[C@H]2O)cc1 | 3.1 | 31.8 | 5.9 | 0.3 to 15.3 | 2.5 | -1.2
14 | O=C(NCc1ccccc1)c1ccc(S(=O)(=O)NC[C@@H](O)C[C@@H](Cc2ccccc2)C(=O)N[C@H]2c3ccccc3C[C@H]2O)cc1 | -2 | 90.5 | 32.3 | 4.8 to 41.4 | 25 | -7.7
15 | O=C(NC[C@@H](O)C[C@@H](Cc1ccccc1)C(=O)N[C@H]1c2ccccc2C[C@H]1O)C1CC1 | 37 | 24 | 21.1 | -3.8 to 26.6 | 21 | 29.1
16 | CC(C)(C)c1ccc(C(=O)NC[C@@H](O)C[C@@H](Cc2ccccc2)C(=O)N[C@H]2c3ccccc3C[C@H]2O)cc1 | 11.3 | 23.2 | 16 | 15.5 to 16.2 | 10.7 | 7.8
17 | CO[C@@H]1Cc2ccccc2[C@@H]1NC(=O)[C@H](Cc1ccccc1)C[C@H](O)CN(C)S(=O)(=O)c1ccc([N+](=O)[O-])cc1 | – | 26 | 11.3 | 4.9 to 6.9 | 21.1 | –
